16 molecules from patent publication US9376425B2, “Heterocyclic compounds as MDM2 inhibitors for the treatment of cancer” (AMGEN INC., priority 2011, dated 2016) can be followed below.

T1 sequence (Q00987 1-188): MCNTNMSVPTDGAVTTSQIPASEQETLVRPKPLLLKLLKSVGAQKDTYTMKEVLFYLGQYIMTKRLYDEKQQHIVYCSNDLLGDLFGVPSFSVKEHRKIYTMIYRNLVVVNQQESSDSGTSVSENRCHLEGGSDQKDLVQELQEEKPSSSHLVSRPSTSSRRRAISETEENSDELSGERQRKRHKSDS

This assay addresses T1, human MDM2 (GST-hMDM2 1-188), interaction with biotinylated-p53 (1-83) (Homo sapiens, UniProt Q00987).
T1 construct: Amino acid residues 1-188 of human MDM2 were expressed; made in house; host or cells: Escherichia coli
In words: improved HTRF assay (HTRF2 assay), inhibition of HDM2-p53 interaction. It counts as binding. Conditions: 0.2 nM GST-hMDM2, 0.5 nM biotinylated-p53, 100 mM KF. The procedure, abridged:
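GST-hMDM2 preincubated 20 min at RT with serially diluted compound, then biotinylated p53 (1-83, E. coli) added for 60 min. Detection with SA-XLent, anti-GST cryptate and KF, equilibrated >4 h; final DMSO 2%. TR-FRET read; % inhibition calculated relative to nutlin-3.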
Take `NC(=O)C[C@H]1O[C@H](c2cccc(Cl)c2)[C@@H](c2ccc(Cl)cc2)N([C@H](CN(c2c(F)cccc2F)S(=O)(=O)C2CC2)C2CC2)C1=O` (single isomer, unassigned) [Example 359, 2-((2R,5R,6R)-6-(3-Chlorophenyl)-5-(4-chlorophenyl)-4-((S)-1-cyclopropyl-2-(N-(2,6-difluorophenyl)cyclopropanesulfonamido)ethyl)-3-oxomorpholin-2-yl)acetamide or 2-((2S,5R,6R)-6-(3-chlorophenyl)-5-(4-chlorophenyl)-4-((S)-1-cyclopropyl-2-(N-(2,6-difluorophenyl)cyclopropanesulfonamido)ethyl)-3-oxomorpholin-2-yl)acetamide]: the concentration for half-maximal inhibition (IC50) – broadly, the midpoint of a concentration-inhibition curve – was under 1 nM. With `NC(=O)C[C@H]1O[C@H](c2cccc(Cl)c2)[C@@H](c2ccc(Cl)cc2)N([C@H](CN(c2ccccc2)S(=O)(=O)C2CC2)C2CC2)C1=O` (single isomer, unassigned) [Example 360, 2-((2R,5R,6R)-6-(3-Chlorophenyl)-5-(4-chlorophenyl)-4-((S)-1-cyclopropyl-2-(N-phenylcyclopropanesulfonamido)ethyl)-3-oxomorpholin-2-yl)acetamide or 2-((2S,5R,6R)-6-(3-chlorophenyl)-5-(4-chlorophenyl)-4-((S)-1-cyclopropyl-2-(N-phenylcyclopropanesulfonamido)ethyl)-3-oxomorpholin-2-yl)acetamide], half-maximal inhibition (IC50) required 1 nM. The molecule `NC(=O)C[C@H]1O[C@H](c2cccc(Cl)c2)[C@@H](c2ccc(Cl)cc2)N([C@H](CN(c2ccccc2)S(=O)(=O)C2CC2)C2CC2)C1=O` (single isomer, unassigned) [Example 361, 2-((2R,5R,6R)-6-(3-Chlorophenyl)-5-(4-chlorophenyl)-4-((S)-1-cyclopropyl-2-(N-phenylcyclopropanesulfonamido)ethyl)-3-oxomorpholin-2-yl)acetamide or 2-((2S,5R,6R)-6-(3-chlorophenyl)-5-(4-chlorophenyl)-4-((S)-1-cyclopropyl-2-(N-phenylcyclopropanesulfonamido)ethyl)-3-oxomorpholin-2-yl)acetamide] showed an IC50 of under 1 nM. With `CC(C)(C)S(=O)(=O)C[C@H](CC(F)(F)F)N1C(=O)[C@@H](CC(N)=O)O[C@H](c2cccc(Cl)c2)[C@H]1c1ccc(Cl)cc1` (single isomer, unassigned) [Example 362, 2-((2R,5R,6R)-4-((S)-1-(tert-Butylsulfonyl)-4,4,4-trifluorobutan-2-yl)-6-(3-chlorophenyl)-5-(4-chlorophenyl)-3-oxomorpholin-2-yl)acetamide or 2-((2S,5R,6R)-4-((S)-1-(tert-butylsulfonyl)-4,4,4-trifluorobutan-2-yl)-6-(3-chlorophenyl)-5-(4-chlorophenyl)-3-oxomorpholin-2-yl)acetamide], the 50% inhibitory concentration (IC50) worked out at 20 nM. This counts as double-digit nanomolar. `CC(C)(C)S(=O)(=O)C[C@H](CC(F)(F)F)N1C(=O)[C@@H](CC(N)=O)O[C@H](c2cccc(Cl)c2)[C@H]1c1ccc(Cl)cc1` (single isomer, unassigned) [Example 363, 22-((2R,5R,6R)-4-((S)-1-(tert-Butylsulfonyl)-4,4,4-trifluorobutan-2-yl)-6-(3-chlorophenyl)-5-(4-chlorophenyl)-3-oxomorpholin-2-yl)acetamide or 2-((2S,5R,6R)-4-((S)-1-(tert-butylsulfonyl)-4,4,4-trifluorobutan-2-yl)-6-(3-chlorophenyl)-5-(4-chlorophenyl)-3-oxomorpholin-2-yl)acetamide] registered an IC50 of 23 nM. The figure for `CNC(=O)C[C@H]1O[C@H](c2cccc(Cl)c2)[C@@H](c2ccc(Cl)cc2)N([C@H](CN(c2ccccc2F)S(=O)(=O)C2CC2)C2CC2)C1=O` (single isomer, unassigned) [Example 364, 2-((2R,5R,6R)-6-(3-Chlorophenyl)-5-(4-chlorophenyl)-4-((S)-1-cyclopropyl-2-(N-(2-fluorophenyl)cyclopropanesulfonamido)ethyl)-3-oxomorpholin-2-yl)-N-methylacetamide or 2-((2S,5R,6R)-6-(3-chlorophenyl)-5-(4-chlorophenyl)-4-((S)-1-cyclopropyl-2-(N-(2-fluorophenyl)cyclopropanesulfonamido)ethyl)-3-oxomorpholin-2-yl)-N-methylacetamide] is under 1 nM; for `CNC(=O)C[C@H]1O[C@H](c2cccc(Cl)c2)[C@@H](c2ccc(Cl)cc2)N([C@H](CN(c2ccccc2F)S(=O)(=O)C2CC2)C2CC2)C1=O` (single isomer, unassigned) [Example 365, 2-((2R,5R,6R)-6-(3-Chlorophenyl)-5-(4-chlorophenyl)-4-((S)-1-cyclopropyl-2-(N-(2-fluorophenyl)cyclopropanesulfonamido)ethyl)-3-oxomorpholin-2-yl)-N-methylacetamide or 2-((2S,5R,6R)-6-(3-chlorophenyl)-5-(4-chlorophenyl)-4-((S)-1-cyclopropyl-2-(N-(2-fluorophenyl)cyclopropanesulfonamido)ethyl)-3-oxomorpholin-2-yl)-N-methylacetamide] it is 2 nM; for `CN(C)C(=O)C[C@H]1O[C@H](c2cccc(Cl)c2)[C@@H](c2ccc(Cl)cc2)N([C@H](CN(c2ccccc2F)S(=O)(=O)C2CC2)C2CC2)C1=O` (single isomer, unassigned) [Example 366, 2-((2R,5R,6R)-6-(3-Chlorophenyl)-5-(4-chlorophenyl)-4-((S)-1-cyclopropyl-2-(N-(2-fluorophenyl)cyclopropanesulfonamido)ethyl)-3-oxomorpholin-2-yl)-N,N-dimethylacetamide or 2-((2S,5R,6R)-6-(3-chlorophenyl)-5-(4-chlorophenyl)-4-((S)-1-cyclopropyl-2-(N-(2-fluorophenyl)cyclopropanesulfonamido)ethyl)-3-oxomorpholin-2-yl)-N,N-dimethylacetamide] it is under 1 nM. As for `CN(C)C(=O)C[C@H]1O[C@H](c2cccc(Cl)c2)[C@@H](c2ccc(Cl)cc2)N([C@H](CN(c2ccccc2F)S(=O)(=O)C2CC2)C2CC2)C1=O` (single isomer, unassigned) [Example 367, 2-((2R,5R,6R)-6-(3-Chlorophenyl)-5-(4-chlorophenyl)-4-((S)-1-cyclopropyl-2-(N-(2-fluorophenyl)cyclopropanesulfonamido)ethyl)-3-oxomorpholin-2-yl)-N,N-dimethylacetamide or 2-((2S,5R,6R)-6-(3-chlorophenyl)-5-(4-chlorophenyl)-4-((S)-1-cyclopropyl-2-(N-(2-fluorophenyl)cyclopropanesulfonamido)ethyl)-3-oxomorpholin-2-yl)-N,N-dimethylacetamide], the figure is 4 nM; as for `O=C(C[C@H]1O[C@H](c2cccc(Cl)c2)[C@@H](c2ccc(Cl)cc2)N([C@H](CN(c2ccccc2F)S(=O)(=O)C2CC2)C2CC2)C1=O)Nc1ccccn1` (single isomer, unassigned) [Example 368, 2-((2R,5R,6R)-6-(3-Chlorophenyl)-5-(4-chlorophenyl)-4-((S)-1-cyclopropyl-2-(N-(2-fluorophenyl)cyclopropanesulfonamido)ethyl)-3-oxomorpholin-2-yl)-N-(pyridin-2-yl)acetamide or 2-((2S,5R,6R)-6-(3-chlorophenyl)-5-(4-chlorophenyl)-4-((S)-1-cyclopropyl-2-(N-(2-fluorophenyl)cyclopropanesulfonamido)ethyl)-3-oxomorpholin-2-yl)-N-(pyridin-2-yl)acetamide], under 1 nM; as for `O=C(C[C@H]1O[C@H](c2cccc(Cl)c2)[C@@H](c2ccc(Cl)cc2)N([C@H](CN(c2ccccc2F)S(=O)(=O)C2CC2)C2CC2)C1=O)Nc1ccccn1` (single isomer, unassigned) [Example 369, 2-((2R,5R,6R)-6-(3-Chlorophenyl)-5-(4-chlorophenyl)-4-((S)-1-cyclopropyl-2-(N-(2-fluorophenyl)cyclopropanesulfonamido)ethyl)-3-oxomorpholin-2-yl)-N-(pyridin-2-yl)acetamide or 2-((2S,5R,6R)-6-(3-chlorophenyl)-5-(4-chlorophenyl)-4-((S)-1-cyclopropyl-2-(N-(2-fluorophenyl)cyclopropanesulfonamido)ethyl)-3-oxomorpholin-2-yl)-N-(pyridin-2-yl)acetamide], 8 nM.

For `CC(C)(C)S(=O)(=O)C[C@H](C1CC1)N1C(=O)[C@@H](CCO)O[C@H](c2cccc(Cl)c2)[C@H]1c1ccc(Cl)cc1` (single isomer, unassigned) [Example 370, (2R,5R,6R)-4-((S)-2-(tert-Butylsulfonyl)-1-cyclopropylethyl)-6-(3-chlorophenyl)-5-(4-chlorophenyl)-2-(2-hydroxyethyl)morpholin-3-one or (2S,5R,6R)-4-((S)-2-(tert-butylsulfonyl)-1-cyclopropylethyl)-6-(3-chlorophenyl)-5-(4-chlorophenyl)-2-(2-hydroxyethyl)morpholin-3-one], the IC50 stood at 28 nM. For `CC[C@@H](CS(=O)(=O)C(C)(C)C)N1C(=O)[C@@H](C[C@@H](O)CO)O[C@H](c2cccc(Cl)c2)[C@H]1c1ccc(Cl)cc1` (single isomer, unassigned) [Example 371], the half-inhibitory concentration (IC50) turned out to be 15 nM. `CC[C@@H](CS(=O)(=O)C(C)(C)C)N1C(=O)[C@@H](C[C@@H](O)CO)O[C@H](c2cccc(Cl)c2)[C@H]1c1ccc(Cl)cc1` (single isomer, unassigned) [Example 372] came in with an IC50 of 67 nM. For the molecule `CC[C@@H](CS(=O)(=O)C(C)(C)C)N1C(=O)[C@@H](C[C@@H](O)CO)O[C@H](c2cccc(Cl)c2)[C@H]1c1ccc(Cl)cc1` (single isomer, unassigned) [Example 373], half-maximal inhibition (IC50) required 45 nM.

In the case of `CC[C@@H](CS(=O)(=O)C(C)(C)C)N1C(=O)[C@@H](C[C@@H](O)CO)O[C@H](c2cccc(Cl)c2)[C@H]1c1ccc(Cl)cc1` (single isomer, unassigned) [Example 374], 19 nM corresponded to half-maximal inhibition (IC50).
